These results are taken from patent US10168342B2, “Lipid probes and uses thereof” (THE SCRIPPS RESEARCH INSTITUTE, priority 2015, dated 2019).

Each structure is given as a SMILES string. Where two headings read alike, the source gives them in different places.

Test [1] deals with T1, AEA-DA lipid probe targets in Neuro2a cells (Mus musculus, UniProt O08547).
T1 sequence (O08547 1-215): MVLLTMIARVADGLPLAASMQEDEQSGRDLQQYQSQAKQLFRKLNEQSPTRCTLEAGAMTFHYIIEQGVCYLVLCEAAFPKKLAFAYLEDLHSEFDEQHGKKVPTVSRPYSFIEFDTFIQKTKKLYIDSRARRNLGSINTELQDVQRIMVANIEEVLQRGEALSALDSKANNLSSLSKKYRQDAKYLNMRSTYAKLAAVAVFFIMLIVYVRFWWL

For test [2], the target named is AEA-DA lipid probe targets in Neuro2a cells (Mus musculus, UniProt Q61584).
Test [3] deals with T2, AEA-DA lipid probe targets in Neuro2a cells (Mus musculus, UniProt Q61712).
T2 sequence (Q61712 44-552): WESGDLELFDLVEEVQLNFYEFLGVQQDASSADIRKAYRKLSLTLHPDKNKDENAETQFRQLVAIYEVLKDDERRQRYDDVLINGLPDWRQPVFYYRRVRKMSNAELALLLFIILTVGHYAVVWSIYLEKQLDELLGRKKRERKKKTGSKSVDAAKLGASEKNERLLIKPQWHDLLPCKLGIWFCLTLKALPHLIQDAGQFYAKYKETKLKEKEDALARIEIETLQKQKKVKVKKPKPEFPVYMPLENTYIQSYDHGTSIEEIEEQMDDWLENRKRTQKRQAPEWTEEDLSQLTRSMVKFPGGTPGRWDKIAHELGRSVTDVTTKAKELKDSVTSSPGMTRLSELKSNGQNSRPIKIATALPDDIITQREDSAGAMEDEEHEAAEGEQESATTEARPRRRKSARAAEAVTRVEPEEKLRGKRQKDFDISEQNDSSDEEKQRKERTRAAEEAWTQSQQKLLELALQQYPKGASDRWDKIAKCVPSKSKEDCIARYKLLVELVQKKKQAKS
Particulars: for SILAC ratio, DNAJC1 (Q96KC8): Neuro2a cells, AEA-DA probe.

Test [4] concerns the target T3, AEA-DA lipid probe targets in Neuro2a cells (Mus musculus, UniProt Q91ZV0).
T3 sequence (Q91ZV0 23-1396): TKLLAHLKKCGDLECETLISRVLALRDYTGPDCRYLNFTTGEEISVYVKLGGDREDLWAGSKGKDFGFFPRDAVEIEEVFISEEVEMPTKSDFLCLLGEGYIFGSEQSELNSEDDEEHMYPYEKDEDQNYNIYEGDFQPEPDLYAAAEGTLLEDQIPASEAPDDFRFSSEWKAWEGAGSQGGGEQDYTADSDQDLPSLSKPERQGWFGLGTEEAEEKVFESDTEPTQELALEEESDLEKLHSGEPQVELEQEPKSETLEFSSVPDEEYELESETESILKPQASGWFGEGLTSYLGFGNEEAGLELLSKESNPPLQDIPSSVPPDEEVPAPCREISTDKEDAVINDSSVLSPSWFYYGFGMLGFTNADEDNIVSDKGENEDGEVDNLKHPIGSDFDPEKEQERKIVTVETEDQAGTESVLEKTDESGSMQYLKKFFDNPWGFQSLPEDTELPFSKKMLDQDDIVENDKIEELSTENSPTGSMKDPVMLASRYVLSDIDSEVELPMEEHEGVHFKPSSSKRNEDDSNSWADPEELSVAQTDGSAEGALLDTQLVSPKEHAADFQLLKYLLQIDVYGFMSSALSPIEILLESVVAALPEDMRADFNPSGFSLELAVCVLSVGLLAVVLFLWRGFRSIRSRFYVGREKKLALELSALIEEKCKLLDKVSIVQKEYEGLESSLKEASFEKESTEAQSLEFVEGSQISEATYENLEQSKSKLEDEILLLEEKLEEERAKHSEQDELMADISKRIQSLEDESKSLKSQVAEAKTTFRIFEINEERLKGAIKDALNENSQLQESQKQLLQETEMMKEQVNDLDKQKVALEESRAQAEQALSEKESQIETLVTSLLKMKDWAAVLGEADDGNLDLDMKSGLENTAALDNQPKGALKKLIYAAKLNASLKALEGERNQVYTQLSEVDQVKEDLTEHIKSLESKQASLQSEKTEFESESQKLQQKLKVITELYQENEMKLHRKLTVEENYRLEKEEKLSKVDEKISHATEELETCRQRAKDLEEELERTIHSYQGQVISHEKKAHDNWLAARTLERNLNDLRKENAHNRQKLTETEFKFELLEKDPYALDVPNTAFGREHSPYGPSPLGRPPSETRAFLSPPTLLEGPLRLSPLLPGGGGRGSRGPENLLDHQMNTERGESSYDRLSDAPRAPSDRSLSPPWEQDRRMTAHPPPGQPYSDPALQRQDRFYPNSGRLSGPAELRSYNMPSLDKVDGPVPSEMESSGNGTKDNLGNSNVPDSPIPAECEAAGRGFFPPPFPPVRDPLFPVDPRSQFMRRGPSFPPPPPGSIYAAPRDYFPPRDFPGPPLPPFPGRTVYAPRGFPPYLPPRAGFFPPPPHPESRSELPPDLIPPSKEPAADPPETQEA

Test [5] has as its target T4, AEA-DA lipid probe targets in Neuro2a cells (Mus musculus, UniProt Q9DC61).
T4 sequence (Q9DC61 34-524): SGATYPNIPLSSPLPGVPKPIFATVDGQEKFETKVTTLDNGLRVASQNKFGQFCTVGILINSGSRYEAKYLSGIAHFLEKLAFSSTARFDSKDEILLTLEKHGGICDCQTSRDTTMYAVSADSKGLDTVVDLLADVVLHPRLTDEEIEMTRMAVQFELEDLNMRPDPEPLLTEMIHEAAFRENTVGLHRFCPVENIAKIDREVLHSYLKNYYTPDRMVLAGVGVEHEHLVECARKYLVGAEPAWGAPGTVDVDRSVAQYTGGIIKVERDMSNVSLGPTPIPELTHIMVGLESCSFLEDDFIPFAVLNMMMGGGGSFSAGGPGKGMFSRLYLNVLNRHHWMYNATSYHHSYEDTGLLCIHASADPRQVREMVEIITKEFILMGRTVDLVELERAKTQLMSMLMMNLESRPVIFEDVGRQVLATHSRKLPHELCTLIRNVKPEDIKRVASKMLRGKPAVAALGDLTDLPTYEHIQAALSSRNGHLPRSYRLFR

Test [6] deals with AEA-DA lipid probe targets in Neuro2a cells (Mus musculus, UniProt Q9JKW0).
Sequence of AEA-DA lipid probe targets in Neuro2a cells (Mus musculus, UniProt Q9JKW0) (Q9JKW0 whole entry): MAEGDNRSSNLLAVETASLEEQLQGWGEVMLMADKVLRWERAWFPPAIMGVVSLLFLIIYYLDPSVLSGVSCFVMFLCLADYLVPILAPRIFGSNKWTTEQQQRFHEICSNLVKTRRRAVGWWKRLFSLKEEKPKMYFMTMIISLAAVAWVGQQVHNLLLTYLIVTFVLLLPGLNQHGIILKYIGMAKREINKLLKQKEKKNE

Sequence of AEA-DA lipid probe targets in Neuro2a cells (Mus musculus, UniProt Q61584) (Q61584 whole entry): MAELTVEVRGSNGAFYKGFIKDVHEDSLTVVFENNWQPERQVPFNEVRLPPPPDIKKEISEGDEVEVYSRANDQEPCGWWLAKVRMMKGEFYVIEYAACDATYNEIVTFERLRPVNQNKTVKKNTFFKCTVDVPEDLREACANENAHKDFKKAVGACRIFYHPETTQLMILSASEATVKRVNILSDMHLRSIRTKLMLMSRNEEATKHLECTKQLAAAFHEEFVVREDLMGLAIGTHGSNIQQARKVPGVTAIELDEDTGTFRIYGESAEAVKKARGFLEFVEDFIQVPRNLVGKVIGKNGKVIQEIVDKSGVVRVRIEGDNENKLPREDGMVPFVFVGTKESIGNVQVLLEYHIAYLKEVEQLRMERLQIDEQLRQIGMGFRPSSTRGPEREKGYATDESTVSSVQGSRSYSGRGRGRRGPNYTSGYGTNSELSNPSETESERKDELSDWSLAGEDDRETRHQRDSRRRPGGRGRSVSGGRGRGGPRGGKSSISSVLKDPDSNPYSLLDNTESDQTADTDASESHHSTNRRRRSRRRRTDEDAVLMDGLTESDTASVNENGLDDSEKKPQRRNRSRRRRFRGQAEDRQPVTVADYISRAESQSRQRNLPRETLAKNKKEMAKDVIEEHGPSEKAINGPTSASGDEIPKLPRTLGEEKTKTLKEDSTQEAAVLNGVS

Turning to `CCCCC/C=C\C/C=C\C/C=C\C/C=C\CCCC(=O)NCCO` [AEA, anandamide, reference compound], the “SILAC ratio, Sec22b” value in test [1] (competitor 200 μM) turned out to be 1.4. For the same compound, in test [2] (competitor 200 μM), the “SILAC ratio Fxr1” value amounted to 1.1. For the same compound, in test [3] (competitor 200 μM), the “SILAC ratio, DNAJC1 (Q96KC8)” value was found to be 2.1 and the “SILAC ratio, Dnajc1” value worked out at 2.1. Besides, the “SILAC ratio, Ctage5” value in test [4] (competitor 200 μM) was determined as 2.3. For the same compound, the “SILAC ratio, Pmpca” value in test [5] (competitor 200 μM) amounted to 1.9. Besides, the “SILAC ratio Arl6ip1” value in test [6] (competitor 200 μM) worked out at 1.5.

Take `C=CCN(C)CCCCCCOc1ccc(C(=O)c2ccc(Br)cc2)c(F)c1` [Ro 48-8071, reference compound]: the “SILAC ratio, Sec22b” value in test [1] (competitor 25 μM) was 1.1. Further, the “SILAC ratio Fxr1” value in test [2] (competitor 25 μM) stood at 0.9. Also, in test [3] (competitor 25 μM), the “SILAC ratio, DNAJC1 (Q96KC8)” value stood at 1.2 and the “SILAC ratio, Dnajc1” value was 1.2. For the same compound, the “SILAC ratio, Ctage5” value in test [4] (competitor 25 μM) is 1.0. Also, in test [5] (competitor 25 μM), the “SILAC ratio, Pmpca” value is reported as 0.9. Also, the “SILAC ratio Arl6ip1” value in test [6] (competitor 25 μM) came out at 1.1.

`CN1CCN(C(=O)c2c(-c3ccccc3)c3cc([N+](=O)[O-])ccc3n2C)CC1` [KML110, (1-Methyl-5-nitro-3-phenyl-1H-indol-2-yl)(4-methylpiperazin-1-yl)methanone]: the “SILAC ratio, Sec22b” value in test [1] (competitor 25 μM) is listed as 1.4. Besides, the “SILAC ratio Fxr1” value in test [2] (competitor 25 μM) came out at 1.5. Also, the “SILAC ratio, Ctage5” value in test [4] (competitor 25 μM) is 1.4. For the same compound, the “SILAC ratio, Pmpca” value in test [5] (competitor 25 μM) came to 1.6. The “SILAC ratio Arl6ip1” value in test [6] (competitor 25 μM) was 1.4.

Take `O=C(/C=C/c1cccnc1)NCCCCC1CCN(C(=O)c2ccccc2)CC1` [FK-866, reference compound]: the “SILAC ratio, Sec22b” value in test [1] (competitor 25 μM) stood at 1.2. For the same compound, in test [2] (competitor 25 μM), the “SILAC ratio Fxr1” value was determined as 1.4. In test [3] (competitor 25 μM), the “SILAC ratio, DNAJC1 (Q96KC8)” value was 1.4 and the “SILAC ratio, Dnajc1” value came to 1.4. Further, the “SILAC ratio, Ctage5” value in test [4] (competitor 25 μM) turned out to be 1.1. In addition, the “SILAC ratio, Pmpca” value in test [5] (competitor 25 μM) was found to be 1.2. For the same compound, the “SILAC ratio Arl6ip1” value in test [6] (competitor 25 μM) was 1.0.

For the compound `CN1CCN(C(=O)c2[nH]c3ccc([N+](=O)[O-])cc3c2-c2ccccc2)CC1` [MJN228, (4-Methylpiperazin-1-yl)(5-nitro-3-phenyl-1H-indol-2-yl)methanone], the “SILAC ratio, Sec22b” value in test [1] (competitor 10 μM) worked out at 1.5; in test [1] (competitor 25 μM), 1.6; in test [1] (competitor 50 μM), 2.0; in test [1] (competitor 100 μM), 2.0. Further, the “SILAC ratio Fxr1” value amounted to 1.2 in test [2] (competitor 10 μM), 1.3 in test [2] (competitor 25 μM), 1.1 in test [2] (competitor 50 μM) and 1.1 in test [2] (competitor 100 μM). In test [3] (competitor 25 μM), the “SILAC ratio, DNAJC1 (Q96KC8)” value is reported as 1.6. Besides, the “SILAC ratio, Dnajc1” value is listed as 1.0 in test [3] (competitor 10 μM), 1.6 in test [3] (competitor 25 μM) and 1.5 in test [3] (competitor 50 μM). Further, the “SILAC ratio, Ctage5” value is listed as 1.1 in test [4] (competitor 10 μM), 1.3 in test [4] (competitor 25 μM), 1.5 in test [4] (competitor 50 μM) and 1.7 in test [4] (competitor 100 μM). In addition, the “SILAC ratio, Pmpca” value in test [5] (competitor 10 μM) worked out at 1.2; in test [5] (competitor 25 μM), 1.4; in test [5] (competitor 50 μM) it was 1.4; in test [5] (competitor 100 μM), 1.5. For the same compound, the “SILAC ratio Arl6ip1” value in test [6] (competitor 10 μM) came to 0.8; in test [6] (competitor 25 μM), 1.6; in test [6] (competitor 100 μM), 1.5.
